Data published in patent publication US12171764B2, “Treatment of a disease of the gastrointestinal tract with a JAK or other kinase inhibitor” (BIORA THERAPEUTICS, INC., priority 2018, dated 2024).
Read-outs that look alike come from different tables or passages of the source.

Tests used:
[1] = tested on: IL-6, GM-CSF, IL-15, IL-2, IL-12, IL-13, TNF-α, and INF-γ; experiment: Tofacitinib pharmacodynamics: JAK/STAT pathway cytokines in plasma and colon tissue by ELISA in DSS-induced colitis mice; format: in vivo, male C57BL/6 mice
[2] = animals treated IC (Groups 5-6); FIG. 110
Experimental: Briefly, samples were analyzed by LC-MS/MS against matrix-matched standard curves.

[3] = Example 13: tacrolimus blood pharmacokinetics, oral vs intra-cecal administration; format: in vivo, Yorkshire-Cross farm swine; conditions: swine
Text: (§1) No further randomization procedure was employed.

[4] = Example 10: tacrolimus blood/plasma pharmacokinetics, oral vs intra-cecal ingestible device delivery; format: in vivo, Yorkshire-Cross farm swine
Experimental: (§2) The primary objective of this study was to compare the tissue, plasma, rectal sample, and GI content pharmacokinetics of tacrolimus through oral versus intra-cecal ingestible device delivery in normal Yorkshire-Cross farm swine.
as §1
Animals in Group 1 received an ingestible device containing 0.8 mL of vehicle solution (80% alcohol, 20% HCO-60). Animals in Group 2 received orally […] liquid formulation of tacrolimus at 4 mg/0.8 mL per animal (Prograf: 5 mg/mL). Animals in Group 3 received intra-cecally an ingestible device containing tacrolimus at 1 mg in 0.8 mL per ingestible device. Animals in Group 4 received intra-cecally an ingestible device containing tacrolimus at 2 mg in 0.8 mL per ingestible device. Animals in Group 5 received intra-cecally an ingestible device containing tacrolimus at 4 mg in 0.8 mL per ingestible device. To control for potential confounding effects of the surgery, all groups fast on Day −11 at least 24 hr before being subjected to anesthesia followed by surgical placements of a cecal port by a veterinary surgeon at Day −10. All animals were fasted for at least 12 hr prior to dosing on Day 1. Animals were dosed via either intra-cecal dosing (IC) or oral dosing (PO) at Day 1 (between 6-8 p.m.). All animals resumed feeding at approximately 4 hours after dose (11-12 p.m. after dosing).
Approximately 200˜400 mg of rectal content were collected, if available, with a fecal swab (Copan Diagnostics Nylon Flocked Dry Swabs, 502CS01). The fecal swab was pre-weighed and weighed after collection in the collection tube (Sterile Tube and Cap No Media, PFPM913S), and the sample weight was recorded. The fecal swab was broken via the breakpoint, and was stored in the collection tube, and immediately frozen at −70° C. […] Immediately following euthanasia, tissue was collected.
[…] Plasma, rectal content sample, tissue collection, GI content collection and related procedures/storage/shipments was the same as those employed in Group 1.
Group 3 animals were administered a single intra-cecal ingestible device containing tacrolimus at 1-mg/0.8 mL (0.02 mg/kg) (in the vehicle solution) on Day 1 by a veterinary surgeon. […] All samples were analyzed for tacrolimus.
Group 4 animals were administered a single intra-cecal ingestible device of tacrolimus at 2 mg/0.8 mL (0.04 mg/kg) (in sterile vehicle solution) on Day 1 by a veterinary surgeon. […] All samples were analyzed for tacrolimus.
Group 5 animals are administered a single intra-cecal ingestible device containing tacrolimus at 4 mg/0.8 mL (0.08 mg/kg) (in the vehicle solution) on Day 1 by a veterinary surgeon. […] All samples were analyzed for tacrolimus. […]

[5] = Example 10: tacrolimus in GI tissue, luminal content and rectal content, oral vs intra-cecal ingestible device delivery; format: in vivo, Yorkshire-Cross farm swine; conditions: FIG. 92
Experimental: as §2
Animals in Group 1 received an ingestible device containing 0.8 mL of vehicle solution (80% alcohol, 20% HCO-60). Animals in Group 2 received orally […] liquid formulation of tacrolimus at 4 mg/0.8 mL per animal (Prograf: 5 mg/mL). Animals in Group 3 received intra-cecally an ingestible device containing tacrolimus at 1 mg in 0.8 mL per ingestible device. […]
Approximately 200˜400 mg of rectal content were collected, if available, with a fecal swab (Copan Diagnostics Nylon Flocked Dry Swabs, 502CS01). The fecal swab was pre-weighed and weighed after collection in the collection tube (Sterile Tube and Cap No Media, PFPM913S), and the sample weight was recorded. […]
For tissue necropsy, small intestine fluid and cecal fluid were collected separately from all the animals into two separate square plastic bottles, and stored at −20° C. The length and diameter of the cecum and the colon was measured from one animal in each group and recorded for reference. […] All samples were weighed, and the tissue sample weights were recorded. […] Around 3 grams of the total punched sample were collected into a pre-weighed 15-mL conical tube, and the tissue weight was recorded. […]

[6] = C57BL/6, mouse, in vivo, 10 mg/kg
[7] = C57BL/6, mouse, in vivo, po, 15 mg/kg

C[C@@H]1CCN(C(=O)CC#N)C[C@@H]1N(C)c1ncnc2[nH]ccc12.O=C(O)CC(O)(CC(=O)O)C(=O)O [tofacitinib citrate]
IL-6 expression in plasma ([1]; PO or IC administration, 1 h and 3 h post-treatment (data not shown)): inhibition of IL-6 expression was observed
IL-6 expression in colon tissue ([1]; all IC treated groups and the high dose PO group (45 mg/kg), FIG. 112B): inhibition of IL-6 expression was sustained through 24 h post-dose
IL-6 expression in colon tissue ([1]; low dose PO group (15 mg/kg) by 12 h post-dose): Recovery from IL-6 inhibition was observed
blood exposure [2]: limited blood exposure

C=CC[C@@H]1/C=C(\C)C[C@H](C)C[C@H](OC)[C@H]2O[C@@](O)(C(=O)C(=O)N3CCCC[C@H]3C(=O)O[C@H](/C(C)=C/[C@@H]3CC[C@@H](O)[C@H](OC)C3)[C@H](C)[C@@H](O)CC1=O)[C@H](C)C[C@@H]2OC [tacrolimus]
Trough (12 hr) ([3]; IC 0.02 mg/kg (Group 3)): 0.746 ng/mL
Cmax ([3]; IC 0.04 mg/kg): 9.197 ± 3.30 ng/mL
Trough (12 hr) ([3]; IC 0.04 mg/kg (Group 4)): 1.96 ng/mL
Trough (12 hr) ([3]; IC 0.09 mg/kg (Group 5)): 4.35 ng/mL
Cmax ([3]; PO 0.09 mg/kg): 3.53 ± 3.84 ng/mL
Trough (12 hr) ([3]; PO 0.09 mg/kg (Group 2), 0.09 mg/kg): 0.568 ng/mL
Tmax ([4]; Route IC, Dose 0.02 (mg · kg)): 1
Cmax ([4]; Route IC, Dose 0.04 (mg · kg)): 9.197 ± 3.30 ng/mL
AUC 0-12 hr ([4]; Route PO, Dose 0.09 (mg · kg)): 16.83 ± 3.641 ng·h/mL
Tmax ([4]; Route PO, Dose 0.09 (mg · kg)): 1
rectal content concentration at 12 hours post-treatment ([5]; IC capsule groups): higher rectal content concentration
rectal content concentration at 12 hours post-treatment ([5]; PO group): no detectable level

C[C@@H]1CCN(C(=O)CC#N)C[C@@H]1N(C)c1ncnc2[nH]ccc12 [tofacitinib, 3-[(3R,4R)-4-methyl-3-[methyl(7H-pyrrolo[2,3-d]pyrimidin-4-yl)amino]piperidin-1-yl]-3-oxopropanenitrile]
T1/2 [6]: 2.16 h
GM-CSF levels in plasma or colon tissue ([1]; IC vs PO treatment groups (data not shown)): nor was there a significant difference in GM-CSF levels
T1/2 [7]: 2.53 h
